Results reported in ChEMBL document CHEMBL1128494, “Synthesis and sigma binding properties of 1'- and 3'-halo- and 1',3'-dihalo-N-normetazocine analogues” (J Med Chem, 1995).

Target: Sigma non-opioid intracellular receptor 1 (Rattus norvegicus) (UniProt Q9R0C9)
Experiment: Ratio of the binding affinity against Sigma receptor type 2 to that of Sigma receptor type 1

Chain of Sigma non-opioid intracellular receptor 1 (Rattus norvegicus) (Q9R0C9 whole entry): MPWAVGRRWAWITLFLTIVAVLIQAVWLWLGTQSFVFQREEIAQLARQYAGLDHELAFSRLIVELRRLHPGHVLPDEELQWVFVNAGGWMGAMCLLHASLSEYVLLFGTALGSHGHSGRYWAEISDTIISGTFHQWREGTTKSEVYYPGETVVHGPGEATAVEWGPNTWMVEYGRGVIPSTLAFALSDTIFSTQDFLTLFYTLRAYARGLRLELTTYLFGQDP

Structure (SMILES) | Ratio
CC1C2Cc3cc(Br)c(O)cc3C1(C)CCN2Cc1ccccc1 (stereo unspecified) | 18
CC1C2Cc3cc(Cl)c(O)c(Cl)c3C1(C)CCN2Cc1ccccc1 (stereo unspecified) | 30
CC1C2Cc3ccc(O)cc3C1(C)CCN2Cc1ccccc1 (stereo unspecified) | 2600
CC(C)=CCN1CCC2(C)c3c(cc(Br)c(O)c3Br)CC1C2C (single isomer, unassigned; (+)) | 1.8
CC(C)=CCN1CCC2(C)c3cc(O)c(Br)cc3CC1C2C (single isomer, unassigned; (+)) | 3.2
CC1C2Cc3cc(Br)c(O)c(Br)c3C1(C)CCN2Cc1ccccc1 (single isomer, unassigned; (+)) | 28
CC1C2Cc3ccc(O)c(Br)c3C1(C)CCN2Cc1ccccc1 (single isomer, unassigned; (+)) | 200
CC1C2Cc3ccc(O)c(Cl)c3C1(C)CCN2Cc1ccccc1 (single isomer, unassigned; (+)) | 440
CC(C)=CCN1CCC2(C)c3cc(O)c(Br)cc3CC1C2C (single isomer, unassigned; (-)) | 1.9
CC(C)=CCN1CCC2(C)c3cc(O)c(I)cc3CC1C2C (stereo in doubt; (+)-5b) | 0.24
CC(C)=CCN1CCC2(C)c3cc(O)c(I)cc3CC1C2C (stereo in doubt; (-)-5b) | 2.7
